Reference: patent publication US10233161B2, “Pharmaceutical compositions and salts of a 1,2,4-oxadiazole benzoic acid” (PTC Therapeutics, Inc., priority 2014, dated 2019)

Key:
[1] = tested on: nonsense mutation in the mouse PAX6 gene; experiment: Nonsense mutation mouse model of aniridia (PAX6^Sey+/−); type: in vivo
Experimental: Compound 1 was administered subcutaneously to PAX6 mutant and wild-type mice for 10 days (Postnatal Day 4-14) or administered topically as an ophthalmic suspension formulation (0.9% sodium chloride, 1% Tween 80, 1% powdered Compound 1, 1% carboxymethylcellulose), twice per day for 46 days (Postnatal Day 14-60). […] In the untreated mutant mouse group, progressive in-folding of the retina and abnormally small lenses was observed.
(§1) Additional successful results were achieved after topical administration of Compound 1 directly into the eye as an ophthalmic suspension formulation (0.9% sodium chloride, 1% Tween 80, 1% powdered Compound 1, 1% carboxymethylcellulose). The lens and retinal defects, observed in the untreated eyes, reversed in the Compound 1-treated mutant mice and closely resembled wild-type mice (FIG. 36B). […] Treatment with Compound 1 caused an increase in the PAX6 protein by 90% in the corneal and retinal epithelium protein lysates compared to wild-type mice (FIG. 36C) as measured by enzyme-linked immunosorbent assay (ELISA).
As a test for effects on visual acuity in the mice, the optokinetic tracking response was measured, which is a behavioural response mediated through the retina-brain circuitry.

[2] = tested on: splice-site mutation in PAX6 (PAX6^Sey-1Neu); experiment: Mouse model containing a splice-site mutation in PAX6 (PAX6^Sey-1Neu); type: in vivo
Excerpt: as §1

[3] = Comparative equilibrium solubility study of micronized and non-micronized Compound 1; type: physicochemical
Experimental: Objective: The purpose of this study was to evaluate the solubility of micronized and non-micronized Compound 1. The solubility study was conducted in two representative media in pH 1 (0.1 N HCl with 0.5% sodium lauryl sulfate) and in pH 7.4 (0.1M phosphate buffered saline). The experiment further compared the initial rate of dissolution and equilibrium solubilities of micronized and non-micronized Compound 1 over a period of time.
Solubility measurement procedure comprised the steps of: 1) weighing and mixing approximately 100 mg of micronized Compound 1 and 100 mL of 0.1N HCl with 0.5% SLS into amber jar 1; 2) weighing and mixing approximately 100 mg of micronized Compound 1 and 100 mL of PBS into amber jar 2; 3) weighing and mixing approximately 100 mg of non-micronized Compound 1 and 100 mL of 0.1N HCl with 0.5% SLS into amber jar 3; 4) weighing and mixing approximately 100 mg of non-micronized Compound 1 and 100 mL of PBS into amber jar 4; 5) mixing all samples in their respective amber jars using a multi purpose rotator for 2 hours; 4) sampling at 5 minutes, 10 minutes, 30 minutes, 60 minutes, 90 minutes, 120 minutes; 5) filtering the samples and 6) analyzing the filtrates using HPLC. For each time point, 10 mL of sample was drawn using a 10 mL syringe with a needle attached filter and using a syringe-top 0.45 μm PTFE syringe filter. The first 9 mL of the samples collected were put back into the original amber jar and then remaining 1 mL was transferred to HPLC vial for analysis.

[4] = subcutaneous, 10 days (Postnatal Day 4-14), PAX6 mutant mice
[5] = topical 1% ophthalmic suspension

O=C(O)c1cccc(-c2noc(-c3ccccc3F)n2)c1 [Compound 1, 3-[5-(2-fluoro-phenyl)-[1,2,4]oxadiazol-3-yl]-benzoic acid]
Optokinetic tracking response (visual acuity) ([1]; spatial frequency threshold, treated mutant mice): significant improvement in the spatial frequency threshold
Increase of the size of the lens [1, 4]: 70%
Retinal in-folding [1, 4]: corrected the retinal in-folding
Disease progression and malformation ([1]; summary for the aniridia model): inhibited disease progression and reversed malformation in the cornea, lens and retina
Histological examination of the cornea [1, 5]: decreased corneal thickening
Retina response to light stimulation [1, 5]: increased response to light stimulation
Lens and retinal defects ([1]; topical 1% ophthalmic suspension, twice per day, Postnatal Day 14-60): reversed
Increase in the PAX6 protein ([1]; topical 1% ophthalmic suspension, corneal and retinal epithelium protein lysates, ELISA): 90%
Response to therapy [2]: did not show a response
Time at which solubility equilibrium was reached ([3]; pH 1 media): approximately 30 minutes
Time at which equilibrium solubility was reached ([3]; pH 7.4 media): approximately 2 hours
